Assay results taken from ChEMBL document CHEMBL5523746, “Discovery of Novel Peptide Antagonists Targeting GPR55 for Liver Inflammation and Fibrosis” (2024).
The source made the active and inactive calls. The rule behind the calls is not given here. Bridge positions count the residues as written; N and C are the ends. Peptide text beside a SMILES is read from it.

How the values were obtained:
[1] = tested on: Mus musculus; experiment: Induction of fatty acid beta-oxidation related gene expression in methionine and choline-deficient (MCD) diet-induced liver fibrosis C57BL/6J mouse model assessed as increase in […] mRNA level at 150 to 300 microg/kg once daily for 3 weeks by qPCR analysis; assay type: functional, organism-based; conditions: dose 150-300 µg/kg
[2] = tested on: Mus musculus; experiment: In vivo anti-fibrotic activity against methionine and choline-deficient (MCD) diet-induced liver fibrosis C57BL/6J mouse model assessed as decrease in inflammatory infiltration and collagen deposition at 150 to 300 microg/kg once daily for 3 weeks by Sirius Red staining based assay; assay type: functional, organism-based; conditions: dose 150-300 µg/kg
[3] = tested on: Mus musculus; experiment: Induction of fatty acid beta-oxidation related gene expression in methionine and choline-deficient (MCD) diet-induced liver fibrosis C57BL/6J mouse model assessed as increase in LCAD mRNA level at 150 to 300 microg/kg once daily for 3 weeks by qPCR analysis; assay type: functional, organism-based; conditions: dose 150-300 µg/kg
[4] = tested on: Mus musculus; experiment: In vivo anti-fibrotic activity against methionine and choline-deficient (MCD) diet-induced liver fibrosis C57BL/6J mouse model assessed as decrease in inflammatory infiltration and collagen deposition at 150 to 300 microg/kg once daily for 3 weeks by ORO staining based assay; assay type: functional, organism-based; conditions: dose 150-300 µg/kg
[5] = tested on: Mus musculus; experiment: In vivo anti-fibrotic activity against CCl4-induced liver fibrosis C57BL/6J mouse model assessed as decrease in inflammation at 150 to 300 microg/kg once daily for 3 weeks by IHC staining based assay; assay type: functional, organism-based; conditions: dose 150-300 µg/kg
[6] = tested on: Mus musculus; experiment: In vivo anti-fibrotic activity against CCl4-induced liver fibrosis C57BL/6J mouse model assessed as liver function by measuring decrease in amino-transferase (ALT) at 150 to 300 microg/kg once daily for 3 weeks by Western blot analysis; assay type: functional, organism-based; conditions: dose 150-300 µg/kg
[7] = tested on: Mus musculus; experiment: In vivo anti-fibrotic activity against CCl4-induced liver fibrosis C57BL/6J mouse model assessed as decrease in steatosis and inflammation at 150 to 300 microg/kg once daily for 3 weeks by H and E staining based assay; assay type: functional, organism-based; conditions: dose 150-300 µg/kg
[8] = tested on: Mus musculus; experiment: In vivo anti-fibrotic activity against CCl4-induced liver fibrosis C57BL/6J mouse model assessed as reduction in oxidative stress by measuring increase in superoxide dismutase at 150 to 300 microg/kg once daily for 3 weeks by enzyme activity assay; assay type: functional, organism-based; conditions: dose 150-300 µg/kg
[9] = tested on: Mus musculus; experiment: In vivo anti-fibrotic activity against CCl4-induced liver fibrosis C57BL/6J mouse model assessed as decrease in pro-apoptotic protein caspase-8 level at 300 microg/kg once daily for 3 weeks by Western blot analysis; assay type: functional, organism-based; conditions: dose 300.0 µg/kg
[10] = tested on: Mus musculus; experiment: In vivo anti-fibrotic activity against CCl4-induced liver fibrosis C57BL/6J mouse model assessed as reduction in hepatocyte apoptosis at 300 microg/kg once daily for 3 weeks by TUNEL assay; assay type: functional, organism-based; conditions: dose 300.0 µg/kg
[11] = tested on: Mus musculus; experiment: In vivo anti-fibrotic activity against methionine and choline-deficient (MCD) diet-induced liver fibrosis C57BL/6J mouse model assessed as reduction in inflammation by measuring decrease in Ly6G inflammation marker at 150 to 300 microg/kg once daily for 3 weeks by IHC staining based assay; assay type: functional, organism-based; conditions: dose 150-300 µg/kg
[12] = tested on: Mus musculus; experiment: In vivo anti-fibrotic activity against CCl4-induced liver fibrosis C57BL/6J mouse model assessed as liver function by measuring decrease in serum amino-transferase (ALT) at 150 to 300 microg/kg once daily for 3 weeks by bio-chemical analysis; assay type: functional, organism-based; conditions: dose 150-300 µg/kg
[13] = tested on: Mus musculus; experiment: Induction of fatty acid beta-oxidation related gene expression in methionine and choline-deficient (MCD) diet-induced liver fibrosis C57BL/6J mouse model assessed as increase in PGC1A mRNA level at 150 to 300 microg/kg once daily for 3 weeks by qPCR analysis; assay type: functional, organism-based; conditions: dose 150-300 µg/kg
[14] = tested on: LX-2; experiment: Anti-fibrotic activity in human LX2 cells assessed as reduction in COL1alpha expression by measuring relative inhibition rate measured after 24 hrs incubation by Western blot analysis relative to control; assay type: functional; set-up: concentration or dose not given beside the values
[15] = tested on: Mus musculus; experiment: In vivo anti-fibrotic activity against CCl4-induced liver fibrosis C57BL/6J mouse model assessed as reduction in hepatocyte apoptosis by measuring decrease in BAX protein level at 300 microg/kg once daily for 3 weeks by TUNEL assay; assay type: functional, organism-based; conditions: dose 300.0 µg/kg
[16] = tested on: Mus musculus; experiment: In vivo anti-fibrotic activity against CCl4-induced liver fibrosis C57BL/6J mouse model assessed as increase in anti-apoptotic protein BCL2 level at 300 microg/kg once daily for 3 weeks by Western blot analysis; assay type: functional, organism-based; conditions: dose 300.0 µg/kg
[17] = tested on: Mus musculus; experiment: In vivo anti-fibrotic activity against CCl4-induced liver fibrosis C57BL/6J mouse model assessed as reduction in hepatocyte apoptosis by measuring increase in BAX protein in cytoplasm at 300 microg/kg once daily for 3 weeks; assay type: functional, organism-based; conditions: dose 300.0 µg/kg
[18] = tested on: Mus musculus; experiment: Reduction in fatty acid synthesis related gene expression in methionine and choline-deficient (MCD) diet-induced liver fibrosis C57BL/6J mouse model assessed as reduction in FAS mRNA level at 150 to 300 microg/kg once daily for 3 weeks by qPCR analysis; assay type: functional, organism-based; conditions: dose 150-300 µg/kg
[19] = tested on: Mus musculus; experiment: In vivo anti-fibrotic activity against CCl4-induced liver fibrosis C57BL/6J mouse model assessed as reduction in oxidative stress by measuring decrease in lipid oxidation product MDA at 150 to 300 microg/kg once daily for 3 weeks by enzyme activity assay; assay type: functional, organism-based; conditions: dose 150-300 µg/kg
[20] = tested on: Mus musculus; experiment: In vivo anti-fibrotic activity against methionine and choline-deficient (MCD) diet-induced liver fibrosis C57BL/6J mouse model assessed as reduction in inflammation by measuring decrease in CD68 inflammation marker at 150 to 300 microg/kg once daily for 3 weeks by IHC staining based assay; assay type: functional, organism-based; conditions: dose 150-300 µg/kg
[21] = tested on: Mus musculus; experiment: In vivo anti-fibrotic activity against methionine and choline-deficient (MCD) diet-induced liver fibrosis C57BL/6J mouse model assessed as reduction in ROS treated at 150 to 300 microg/kg once daily for 3 weeks by qPCR analysis; assay type: functional, organism-based; conditions: dose 150-300 µg/kg
[22] = tested on: Mus musculus; experiment: In vivo anti-fibrotic activity against CCl4-induced liver fibrosis C57BL/6J mouse model assessed as liver function by measuring decrease in serum hydroxyproline (HYP) at 150 to 300 microg/kg once daily for 3 weeks by bio-chemical analysis; assay type: functional, organism-based; conditions: dose 150-300 µg/kg
[23] = tested on: Mus musculus; experiment: In vivo anti-fibrotic activity against CCl4-induced liver fibrosis C57BL/6J mouse model assessed as decrease in alpha-SMA at 150 to 300 microg/kg once daily for 3 weeks by IHC staining based assay; assay type: functional, organism-based; conditions: dose 150-300 µg/kg
[24] = tested on: Mus musculus; experiment: In vivo anti-fibrotic activity against CCl4-induced liver fibrosis C57BL/6J mouse model assessed as decrease in pro-apoptotic protein CHOP level at 300 microg/kg once daily for 3 weeks by Western blot analysis; assay type: functional, organism-based; conditions: dose 300.0 µg/kg
[25] = tested on: LX-2; experiment: Anti-fibrotic activity in human LX2 cells assessed as reduction in […] expression by measuring relative inhibition rate measured after 24 hrs incubation by Western blot analysis relative to control; assay type: functional; set-up: concentration or dose not given beside the values
[26] = tested on: Mus musculus; experiment: Induction of fatty acid beta-oxidation related gene expression in methionine and choline-deficient (MCD) diet-induced liver fibrosis C57BL/6J mouse model assessed as increase in MCAD mRNA level at 150 to 300 microg/kg once daily for 3 weeks by qPCR analysis; assay type: functional, organism-based; conditions: dose 150-300 µg/kg
[27] = tested on: Mus musculus; experiment: In vivo anti-fibrotic activity against CCl4-induced liver fibrosis C57BL/6J mouse model assessed as reduction in […] mRNA level at 150 to 300 microg/kg once daily for 3 weeks by RT-qPCR analysis; assay type: functional, organism-based; conditions: dose 150-300 µg/kg
[28] = tested on: Mus musculus; experiment: Reduction in fatty acid synthesis related gene expression in methionine and choline-deficient (MCD) diet-induced liver fibrosis C57BL/6J mouse model assessed as reduction in SCD1 mRNA level at 150 to 300 microg/kg once daily for 3 weeks by qPCR analysis; assay type: functional, organism-based; conditions: dose 150-300 µg/kg

CC[C@H](C)[C@@H]1NC(=O)[C@H]([C@@H](C)O)NC(=O)[C@@H]2CCCN2C(=O)[C@H](CO)NC(=O)[C@H](CC(N)=O)NC(=O)[C@H](CCCCN)NC(=O)[C@H](CCCCN)NC(=O)[C@@H](N)CSSC[C@@H](C(=O)O)NC1=O (H-CKKNSPTIC-OH; disulfide 1-9)
Activity [1]: Active | Activity [2]: Active | Activity [3]: Active | Activity [4]: Active | Activity [5]: Active | Activity [6]: Active | Activity [7]: Active | Activity [8]: Active | Activity [9]: Active | Activity [10]: Active | Activity [11]: Active | Activity [12]: Active | Activity [13]: Active | Activity [14]: 40% | Activity [15]: Active | Activity [16]: Active | Activity [17]: Active | Activity [18]: Active | Activity [19]: Active | Activity [20]: Active | Activity [21]: Active | Activity [22]: Active | Activity [23]: Active | Activity [24]: Active | Activity [25]: 47% | Activity [26]: Active | Activity [27]: Active | Activity [28]: Active
